Data taken from the NIST ThermoML archive (doi:10.1016/j.jct.2011.04.005).
± gives the expanded uncertainty stated by the source.

Experiments:
[1] = xn = mol fraction of the nth substance listed; settings: Maximal bubble pressure
[2] = Maximal bubble pressure

CCCCCCCCCCCCCC [tetradecane] + CCO
[1], 313.15 K
Settings	surface tension liquid-gas [mN/m]
x2 = 0.054	24.67 ± 0.27
x2 = 0.072	24.67 ± 0.27
x2 = 0.143	24.53 ± 0.27
x2 = 0.191	24.25 ± 0.27
x2 = 0.3	23.3 ± 0.26
x2 = 0.412	22.52 ± 0.26
x2 = 0.522	21.98 ± 0.26
x2 = 0.62	21.76 ± 0.26
x2 = 0.702	21.8 ± 0.26
x2 = 0.8	21.66 ± 0.26
x2 = 0.9	21.4 ± 0.26
x2 = 0.945	21.17 ± 0.26
x2 = 0.967	21.02 ± 0.26
x2 = 0.988	20.82 ± 0.26

CCCCCCCCCC [decane]
[2]
Settings	surface tension liquid-gas [mN/m]
303.15 K	22.9 ± 0.26
308.15 K	22.5 ± 0.26
318.15 K	21.66 ± 0.26

CCCCCCCCCCCCCC [tetradecane]
Settings	surface tension liquid-gas [mN/m]
[2], 313.15 K	24.8 ± 0.27

CCCCCCCCCC [decane] + CCO
[1]
Settings	surface tension liquid-gas [mN/m]
303.15 K, x2 = 0.034	22.85 ± 0.26
303.15 K, x2 = 0.101	22.6 ± 0.26
303.15 K, x2 = 0.189	22.3 ± 0.26
303.15 K, x2 = 0.29	22.1 ± 0.26
303.15 K, x2 = 0.395	21.95 ± 0.26
303.15 K, x2 = 0.492	21.85 ± 0.26
303.15 K, x2 = 0.59	21.75 ± 0.26
303.15 K, x2 = 0.696	21.65 ± 0.26
303.15 K, x2 = 0.801	21.55 ± 0.26
303.15 K, x2 = 0.907	21.45 ± 0.26
303.15 K, x2 = 0.959	21.44 ± 0.26
303.15 K, x2 = 0.982	21.43 ± 0.26
308.15 K, x2 = 0.076	22.25 ± 0.26
308.15 K, x2 = 0.173	22 ± 0.26
308.15 K, x2 = 0.286	21.8 ± 0.26
308.15 K, x2 = 0.373	21.68 ± 0.26
308.15 K, x2 = 0.486	21.54 ± 0.26
308.15 K, x2 = 0.593	21.46 ± 0.26
308.15 K, x2 = 0.695	21.4 ± 0.26
308.15 K, x2 = 0.8	21.29 ± 0.26
308.15 K, x2 = 0.902	21.2 ± 0.26
308.15 K, x2 = 0.954	21.17 ± 0.26
318.15 K, x2 = 0.067	21.51 ± 0.26
318.15 K, x2 = 0.16	21.25 ± 0.26
318.15 K, x2 = 0.272	21 ± 0.26
318.15 K, x2 = 0.366	20.83 ± 0.26
318.15 K, x2 = 0.472	20.67 ± 0.26
318.15 K, x2 = 0.585	20.54 ± 0.26
318.15 K, x2 = 0.698	20.48 ± 0.26
318.15 K, x2 = 0.803	20.37 ± 0.25
318.15 K, x2 = 0.907	20.3 ± 0.25
318.15 K, x2 = 0.958	20.36 ± 0.25

CCCCCCCCCCCC [dodecane] + CCO
surface tension liquid-gas [mN/m], [1]
Settings	298.15 K	303.15 K
x2 = 0.055	24.87 ± 0.27	24.6 ± 0.27
x2 = 0.09	–	24.5 ± 0.27
x2 = 0.097	24.72 ± 0.27	–
x2 = 0.174	–	24.05 ± 0.27
x2 = 0.184	24.33 ± 0.27	–
x2 = 0.247	–	23.7 ± 0.26
x2 = 0.264	23.95 ± 0.27	–
x2 = 0.332	–	23.35 ± 0.26
x2 = 0.366	23.47 ± 0.26	–
x2 = 0.443	–	22.92 ± 0.26
x2 = 0.472	23.1 ± 0.26	–
x2 = 0.571	–	22.65 ± 0.26
x2 = 0.589	22.97 ± 0.26	–
x2 = 0.684	–	22.52 ± 0.26
x2 = 0.692	22.92 ± 0.26	–
x2 = 0.795	–	22.39 ± 0.26
x2 = 0.799	22.78 ± 0.26	–
x2 = 0.903	–	22.16 ± 0.26
x2 = 0.905	22.57 ± 0.26	–
x2 = 0.951	22.38 ± 0.26	21.98 ± 0.26

CCCCCCCCCCCC [dodecane]
[2]
Settings	surface tension liquid-gas [mN/m]
298.15 K	24.9 ± 0.27
303.15 K	24.73 ± 0.27

CCO [ethanol]
[2]
Settings	surface tension liquid-gas [mN/m]
298.15 K	22.1 ± 0.26
303.15 K	21.7 ± 0.26
308.15 K	21.3 ± 0.26
313.15 K	20.71 ± 0.26
318.15 K	20.4 ± 0.25

CCCCCCCC [octane] + CCO
[1]
Settings	surface tension liquid-gas [mN/m]
298.15 K, x2 = 0.099	20.91 ± 0.26
298.15 K, x2 = 0.208	20.9 ± 0.26
298.15 K, x2 = 0.294	20.79 ± 0.26
298.15 K, x2 = 0.391	20.8 ± 0.26
298.15 K, x2 = 0.512	20.75 ± 0.26
298.15 K, x2 = 0.604	20.81 ± 0.26
298.15 K, x2 = 0.707	20.9 ± 0.26
298.15 K, x2 = 0.809	21.03 ± 0.26
298.15 K, x2 = 0.871	21.19 ± 0.26
298.15 K, x2 = 0.908	21.44 ± 0.26
298.15 K, x2 = 0.955	21.69 ± 0.26
308.15 K, x2 = 0.105	19.95 ± 0.25
308.15 K, x2 = 0.162	19.83 ± 0.25
308.15 K, x2 = 0.209	19.81 ± 0.25
308.15 K, x2 = 0.31	19.73 ± 0.25
308.15 K, x2 = 0.403	19.71 ± 0.25
308.15 K, x2 = 0.5	19.72 ± 0.25
308.15 K, x2 = 0.607	19.71 ± 0.25
308.15 K, x2 = 0.707	19.86 ± 0.25
308.15 K, x2 = 0.807	20.05 ± 0.25
308.15 K, x2 = 0.904	20.39 ± 0.25
308.15 K, x2 = 0.955	20.77 ± 0.26
318.15 K, x2 = 0.103	18.96 ± 0.25
318.15 K, x2 = 0.205	18.71 ± 0.25
318.15 K, x2 = 0.345	18.64 ± 0.25
318.15 K, x2 = 0.448	18.6 ± 0.25
318.15 K, x2 = 0.598	18.63 ± 0.25
318.15 K, x2 = 0.703	18.69 ± 0.25
318.15 K, x2 = 0.809	18.83 ± 0.25
318.15 K, x2 = 0.91	19.18 ± 0.25
318.15 K, x2 = 0.958	19.85 ± 0.25

CCCCCCCC [octane]
[2]
Settings	surface tension liquid-gas [mN/m]
298.15 K	21.1 ± 0.26
308.15 K	20.2 ± 0.26
318.15 K	19.2 ± 0.25
